# Measurements from EP4707393A1, “DOUBLE-STRANDED SIRNA, CONJUGATE THEREOF AND USE THEREOF” (CMS Research & Development Pte. Ltd., priority 2023, dated 2024).
# Tested on: human LPA gene (Genbank number: NM_005577.4)
# Experiment: Inhibitory activity against LPA mRNA, psiCHECK-2 dual-luciferase reporter vector in Huh7 cells
# Format: cell-based
# Conditions: Huh7 cells transfected with LPA_psiCHECK-2 plasmid, RNAiMAX transfection
# Protocol: A stock solution was prepared by dissolving in PBS and stored at -20 °C.
# The human LPA gene (Genbank number: NM_005577.4) was cloned into the psiCHECK™-2 vector.
# Huh7 cells were cultured in DMEM (Gibco-11995-065, 500 mL) medium, supplemented with FBS (ExCellBio-FSP500, 57 mL), Penicillin-Streptomycin solution (Hyclone-SV30010, 5.7 mL), GlutaMAX™ (Gibco-35050-061, 5.7 mL) and Non-Essential Amino Acids Solution (Gibco-11140050, 5.7 mL).
# On Day 1, a method for transfection of the LPA_PSICHECK (TM)-2 plasmid is briefly described as follows: Huh7 cells were washed with DPBS, followed by digestion with 0.05% trypsin, gently pipetted into single cells in DMEM containing 10% FBS, and counted. Plasmid DNA was transferred into Huh7 cells using Fugene HD. The transfected cells were seeded into 96-well plates at a density of 10,000 cells per well, with 100 µL culture medium per well. The cells were incubated overnight in a 5% CO2 incubator at 37 °C.
# On Day 2, the test compounds were diluted serially with PBS to 3 concentrations.
# RNAiMAX transfection reagent was prepared by blending homogeneously with Opti-MEM at a ratio of RNAiMAX: Opti-MEM=3:47 in a 15 mL centrifuge tube as needed. The compounds were mixed with the RNAiMAX/Opti-MEM (1:1) and incubated for 15 min. The compound-containing RNAiMAX/Opti-MEM mixture was diluted 10-fold with fresh medium and blended homogeneously.
# The medium in each well was aspirated, and then 100 µL of the fresh compound-containing medium was added, and then incubated in a 5% CO2, 37 °C incubator.
# Experimental procedures refer to DUAL-GLO® Dual Luciferase Assay System instructions, briefly described as follows: Taking out the cells from the incubator, aspirating and discarding the supernatant, adding 75µL fresh culture medium and 75µL detection reagent, shaking for 10 minutes in the dark, and after the cells had been fully lysed, transfering100µL sample to an opaque whiteboard for detecting the Firefly luminescence signal; adding 50 µL Dual-Glo®Stop & Glo® test reagent to each well and detecting the Renilla luciferase signal after shaking for 10 minutes in the dark. The ratio of the reporter signal to the internal control reporter signal was calculated for each well.
# [formula] % Inhibition = (1-Sampleratio/RNAiMAXcontrolratio) × 100% [formula]
row,Substance,EC50
1,"Z15: siRNA conjugate: sense SEQ ID NO:27, ligand D08 at 3' end of sense strand, antisense SEQ ID NO:63 (sense CCCTTATTGTTATACG; antisense ATCCCTCGTANAACAATAAGGGGCTG; 2'-OMe/2'-F modified, ligand at sense 3' end, full pattern not given here)",0.23 nM
2,"Z50: siRNA conjugate: sense SEQ ID NO:51, ligand D01 at 3' end of sense strand, antisense SEQ ID NO:86 (sense CCTGCCAAGCTTGGTCATCTA; antisense TCTAGATNACCAAGCTTGGCAGG; ligand D01 at sense 3' end; listed as RNA; modified_base 1..2: mod_base = OTHER; note = 2'-O-methylcytidine; modified_base 3: mod_base = OTHER; note = 2'-O-methyluridine; modified_base 4: mod_base = OTHER; note = 2'-O-methylguanosine; modified_base 5..6: mod_base = OTHER; note = 2'-O-m; modified_base 1: mod_base = OTHER; note = 2'-fluoroadenosine; modified_base 5: mod_base = OTHER; note = 2'-O-methyl)",0.41 nM
3,"Z13: siRNA conjugate: sense SEQ ID NO:27, ligand D08 at 3' end of sense strand, antisense SEQ ID NO:61 (sense CCCTTATTGTTATACG; antisense ATCCCTCGTANAACAATAAGGGGCTGTT; 2'-OMe/2'-F modified, ligand at sense 3' end, full pattern not given here)",0.42 nM
4,"Z14: siRNA conjugate: sense SEQ ID NO:27, ligand D08 at 3' end of sense strand, antisense SEQ ID NO:62 (sense CCCTTATTGTTATACG; antisense ATCCCTCGTANAACAATAAGGGGCTGTT; 2'-OMe/2'-F modified, ligand at sense 3' end, full pattern not given here)",1.59 nM
5,"Z1: siRNA conjugate: sense SEQ ID NO:27, ligand D08 at 3' end of sense strand, antisense SEQ ID NO:56 (sense CCCTTATTGTTATACG; antisense ATCCCTCGTANAACAATAAGGGGCTGTT; 2'-OMe/2'-F modified, ligand at sense 3' end, full pattern not given here)",0.12 nM
6,"Z12: siRNA conjugate: sense SEQ ID NO:27, ligand D08 at 3' end of sense strand, antisense SEQ ID NO:60 (sense CCCTTATTGTTATACG; antisense ATCCCTCGTANAACAATAAGGGGCTG; 2'-OMe/2'-F modified, ligand at sense 3' end, full pattern not given here)",0.32 nM
7,"Z25: siRNA conjugate: sense SEQ ID NO:41, ligand D18 at 3' end of sense strand, antisense SEQ ID NO:64 (sense NNCCCCTTATTGTTATACGNGA; antisense TCTCGTANAACAATAAGGGGCTGTT; ligand D18 at sense 3' end; listed as RNA; modified_base 1: mod_base = OTHER; note = n is invAb; modified_base 2: mod_base = OTHER; note = n is R; modified_base 3..6: mod_base = OTHER; note = 2'-O-methylcytidine; modified_base 7: mod_base = OTHER; note = 2'-O-methyluridine; modified_ba; modified_base 3: mod_base = OTHER; modified_base 4: mod_base = OTHER; note = 2'-fluorocytidine; modified_base 5: mod_base = OTHER; note = 2'-O-methylg)",0.68 nM
8,"Z52: siRNA conjugate: sense SEQ ID NO:53, ligand D01 at 3' end of sense strand, antisense SEQ ID NO:88 (sense CTTGCCAAGCTTGGTCATCTA; antisense TCTAGATGNCCAAGCTTGGCAAG; ligand D01 at sense 3' end; listed as RNA; modified_base 1: mod_base = OTHER; note = 2'-O-methylcytidine; modified_base 2: mod_base = OTHER; note = 2'-O-methyluridine; modified_base 3: mod_base = OTHER; modified_base 4: mod_base = OTHER; note = 2'-O-methylgua; note = 2'-fluoroadenosine; modified_base 5: mod_base = OTHER; note = 2'-O-methyl)",0.14 nM
9,"Z8: siRNA conjugate: sense SEQ ID NO:32, ligand D08 at 3' end of sense strand, antisense SEQ ID NO:56 (sense CCCTTATTGTTATACG; antisense ATCCCTCGTANAACAATAAGGGGCTGTT; 2'-OMe/2'-F modified, ligand at sense 3' end, full pattern not given here)",0.81 nM
10,"Z6: siRNA conjugate: sense SEQ ID NO:27, ligand D08 at 3' end of sense strand, antisense SEQ ID NO:57 (sense CCCTTATTGTTATACG; antisense TCGTANAACAATAAGGGGCTGTT; ligand D08 at sense 3' end; listed as RNA; modified_base 1..2: mod_base = OTHER; note = 2'-O-methylcytidine; modified_base 3: mod_base = OTHER; modified_base 4: mod_base = OTHER; note = 2'-O-methyluridine; modified_base 5: mod_base = OTHER; note = 2'-fluorou; modified_base 1: mod_base = OTHER; note = E-type vinylphosphonate-modified 2'-O-methyluridine; modified_base 2: mod_base = OTHER; note = 2'-fluorocytidine; note = 2'-O-methylguanosine; modified_base 4: mo)",0.42 nM
11,"Z10: siRNA conjugate: sense SEQ ID NO:34, ligand D08 at 3' end of sense strand, antisense SEQ ID NO:56 (sense CCCTTATTGTTATACG; antisense ATCCCTCGTANAACAATAAGGGGCTGTT; 2'-OMe/2'-F modified, ligand at sense 3' end, full pattern not given here)",2.11 nM
12,"Z23: siRNA conjugate: sense SEQ ID NO:39, ligand D18 at 3' end of sense strand, antisense SEQ ID NO:64 (sense NNCCCCTTATTGTTATACGN; antisense TCTCGTANAACAATAAGGGGCTGTT; 2'-OMe/2'-F modified, ligand at sense 3' end, full pattern not given here)",0.12 nM
13,"Z36: siRNA conjugate: sense SEQ ID NO:50, ligand D18 at 3' end of sense strand, antisense SEQ ID NO:75 (sense CCTGCCAAGCTTGGTCATCTA; antisense TAGATGNCCAAGCTTGGCNGGTT; ligand D18 at sense 3' end; listed as RNA; modified_base 1..2: mod_base = OTHER; note = 2'-O-methylcytidine; modified_base 3: mod_base = OTHER; note = 2'-O-methyluridine; modified_base 4: mod_base = OTHER; note = 2'-O-methylguanosine; modified_base 5..6: mod_base = OTHER; note = 2'-O-m; modified_base 1: mod_base = OTHER; note = E-type vinylphosphonate-modified 2'-O-methyluridine; modified_base 2: mod_base = OTHER; note = 2'-fluoroadenosine; modified_base 4: m)",0.23 nM
14,"Z7: siRNA conjugate: sense SEQ ID NO:27, ligand D08 at 3' end of sense strand, antisense SEQ ID NO:58 (sense CCCTTATTGTTATACG; antisense TCGTANAACAATAAGGGGCTGTT; ligand D08 at sense 3' end; listed as RNA; modified_base 1..2: mod_base = OTHER; note = 2'-O-methylcytidine; modified_base 3: mod_base = OTHER; modified_base 4: mod_base = OTHER; note = 2'-O-methyluridine; modified_base 5: mod_base = OTHER; note = 2'-fluorou; modified_base 1: mod_base = OTHER; modified_base 2: mod_base = OTHER; note = 2'-fluorocytidine; note = 2'-O-methylguanosine)",2.41 nM
